This is an account of results in patent publication US9351955B2, “Compounds and pharmaceutical compositions thereof for the treatment of cystic fibrosis” (Galapagos NV, priority 2013, dated 2016).

One assay has as its target T1, CFTR ΔF508 (Homo sapiens, UniProt P13569, DEL508-508).
T1 construct: host or cells: primary bronchial epithelial cells from CF patients homozygous for ΔF508, pre-treated with VX809
In words: TECC assay, primary bronchial epithelial cells from CF patients homozygous for CFTR ΔF508. Format: cell-based. To be noted: for ΔIsc / Current increase: TECC assay; for Current increase: difference between ΔIsc with compound and ΔIsc DMSO (baseline); for pEC50: primary bronchial epithelial cells, CFTR ΔF508, several values in a cell = repeat determinations. The method, then:
7.2.1. Primary Bronchial Epithelial Cells Protocol
The TECC (Tranepithelial Clamp Circuit, EP-design) assay measures the functionality of the cystic fibrosis Transmembrane Conductance regulator (CFTR) by measuring the short circuit current (ISC) generated over the basolateral and apical membrane of lung epithelial cells. In TECC the transepithelial potential PD and transepithelial resistance (Rt) are measured in an open circuit and transformed to ISC using Ohm's law. 24 wells can be measured simultaneously allowing a higher throughput compared to Ussing chambers.
For this purpose, bronchial epithelial cells isolated from CF patients homozygous for the CFTR ΔF508 mutation (hAEC-CF, Epithelix) are plated on type IV collagen-coated Transwell supports (Costar). Human airway epithelia are generated by provision of an air-liquid interface for 21 days to form well-differentiated polarized cultures that resemble in vivo pseudo-stratified ciliated epithelium (Fulcher et al., 2005). In the case of the homozygous ΔF508 CFTR samples, the differentiated cells are treated with 3 μM VX809 (2626 South Loop West, Suite 225, Houston, Tex. 77054 USA, Cat n#51565) to allow sufficient expression of properly folded CFTR protein on the membrane (48 hours basolateral treatment and 24 hours apical treatment), prior to electrophysiological recordings. […] G551D/ΔF508, differentiated cells are used as such for the recordings.
Information on the compounds can be retrieved on the homozygous ΔF508 CFTR samples looking at increased CFTR activity when compounds are added in an acute mode or in a chronic mode. On G551D/ΔF508 CFTR heterozygous samples compounds are added in an acute mode to the differentiated cells.
For the acute mode, for electrophysiological recording, the human airway epithelia are mounted in the TECC heating plate for electrophysiological measurement and kept at 37° C. The epithelia are bathed in a NaCl-Ringer solution (120 mM NaCl, 25 mM NaHCO3, 1.2 mM CaCl2, 1.2 mM MgCl2, 0.8 mM KH2PO4, 0.8 mM K2HPO4, pH 7.4, 5 mM glucose) on both the basolateral and apical sides. Apical amiloride is used to inhibit the endogenous ENaC currents while forkolin is applied on both apical and basolateral side to stimulate CFTR. After forskolin triggering, compounds are added on both sides to test their potential for increasing CFTR gating. Measurements are done during a 20 minute timeframe with recordings every 2 minutes. The increase in ISC is used as a measure for the increased CFTR activity, EC50 values can be generated by measuring impact of different concentrations of compound on ISC on primary cells, for this purpose each transwell is treated with a different compound concentration. Inh-172, an inhibitor specific for CFTR, is used to test the specificity of the tested compounds.
For the chronic mode, the differentiated cells are treated with 3 μM VX809 (2626 South Loop West, Suite 225, Houston, Tex. 77054 USA, Cat n#51565) and potentiator compounds at different concentrations (48 hours basolateral treatment and 24 hours apical treatment), prior to electrophysiological recordings. For electrophysiological recording, the human airway epithelia are mounted in the TECC heating plate for electrophysiological measurement and kept at 37° C. […]

The target of another assay is T2, CFTR-G1349D (Homo sapiens, UniProt P13569, G1349D).
T2 construct: expressed in transfected cells
T2 sequence (P13569 whole entry G1349D): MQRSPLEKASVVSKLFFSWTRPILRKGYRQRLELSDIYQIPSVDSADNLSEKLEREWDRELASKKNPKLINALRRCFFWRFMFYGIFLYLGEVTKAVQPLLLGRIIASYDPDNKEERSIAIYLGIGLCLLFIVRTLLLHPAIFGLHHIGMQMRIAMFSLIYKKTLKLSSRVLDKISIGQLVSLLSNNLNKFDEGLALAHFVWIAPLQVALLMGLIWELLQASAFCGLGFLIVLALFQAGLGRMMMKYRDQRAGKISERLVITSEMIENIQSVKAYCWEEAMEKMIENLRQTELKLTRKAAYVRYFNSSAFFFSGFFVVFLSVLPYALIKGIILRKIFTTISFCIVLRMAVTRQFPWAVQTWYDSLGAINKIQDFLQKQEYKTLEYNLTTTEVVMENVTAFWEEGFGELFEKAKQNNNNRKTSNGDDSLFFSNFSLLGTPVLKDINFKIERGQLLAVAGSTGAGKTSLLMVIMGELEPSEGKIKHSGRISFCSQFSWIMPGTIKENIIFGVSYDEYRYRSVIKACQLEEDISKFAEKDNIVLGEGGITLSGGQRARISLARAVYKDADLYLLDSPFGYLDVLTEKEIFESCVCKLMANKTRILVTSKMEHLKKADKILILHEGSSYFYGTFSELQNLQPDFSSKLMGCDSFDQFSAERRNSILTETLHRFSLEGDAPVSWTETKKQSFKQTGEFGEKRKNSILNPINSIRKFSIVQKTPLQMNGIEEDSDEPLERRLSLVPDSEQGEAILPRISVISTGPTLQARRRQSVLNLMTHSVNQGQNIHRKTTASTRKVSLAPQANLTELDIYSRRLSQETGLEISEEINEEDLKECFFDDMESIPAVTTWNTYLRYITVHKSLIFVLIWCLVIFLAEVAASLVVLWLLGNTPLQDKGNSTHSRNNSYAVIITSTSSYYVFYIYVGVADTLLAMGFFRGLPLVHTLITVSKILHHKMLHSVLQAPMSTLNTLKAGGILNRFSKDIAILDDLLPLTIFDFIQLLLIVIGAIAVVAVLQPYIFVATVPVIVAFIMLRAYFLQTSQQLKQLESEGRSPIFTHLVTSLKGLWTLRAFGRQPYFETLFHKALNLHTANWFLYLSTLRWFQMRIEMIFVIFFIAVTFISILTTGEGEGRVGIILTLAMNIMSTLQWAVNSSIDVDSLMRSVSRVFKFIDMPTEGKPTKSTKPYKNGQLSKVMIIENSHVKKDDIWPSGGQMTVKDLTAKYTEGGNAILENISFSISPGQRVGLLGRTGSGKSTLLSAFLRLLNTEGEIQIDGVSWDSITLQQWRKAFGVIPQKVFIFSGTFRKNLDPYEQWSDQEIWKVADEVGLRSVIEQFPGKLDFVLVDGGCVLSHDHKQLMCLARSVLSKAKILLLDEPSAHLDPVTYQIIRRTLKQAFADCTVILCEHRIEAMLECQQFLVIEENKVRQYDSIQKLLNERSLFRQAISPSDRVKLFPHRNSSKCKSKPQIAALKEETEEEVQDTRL
The assay is described as follows: YFP-halide influx assay for the CFTR-G1349D. Format: cell-based. To be noted: CFTR-G1349D mutant; read-out: EC50 measured by YFP-halide influx assay for the CFTR-G1349D. The essentials: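 HEK293 cells reverse-transfected with mutant CFTR and halide-sensitive YFP H148Q/I152L/F47L reporter, then expressed 24 h at 37 °C, 5% CO2. Fluorescence quenching recorded for 7 s after I^− injection; response expressed as 1−F/F0, with EC50 derived from response versus compound concentration.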

pEC50: −log10 of the molar value. “And” between values parts separate entries of the source, which are not always exact repeats. Equal values may be shown once.

T1 sequence (P13569 with tags, fused parts or gaps DEL508-508): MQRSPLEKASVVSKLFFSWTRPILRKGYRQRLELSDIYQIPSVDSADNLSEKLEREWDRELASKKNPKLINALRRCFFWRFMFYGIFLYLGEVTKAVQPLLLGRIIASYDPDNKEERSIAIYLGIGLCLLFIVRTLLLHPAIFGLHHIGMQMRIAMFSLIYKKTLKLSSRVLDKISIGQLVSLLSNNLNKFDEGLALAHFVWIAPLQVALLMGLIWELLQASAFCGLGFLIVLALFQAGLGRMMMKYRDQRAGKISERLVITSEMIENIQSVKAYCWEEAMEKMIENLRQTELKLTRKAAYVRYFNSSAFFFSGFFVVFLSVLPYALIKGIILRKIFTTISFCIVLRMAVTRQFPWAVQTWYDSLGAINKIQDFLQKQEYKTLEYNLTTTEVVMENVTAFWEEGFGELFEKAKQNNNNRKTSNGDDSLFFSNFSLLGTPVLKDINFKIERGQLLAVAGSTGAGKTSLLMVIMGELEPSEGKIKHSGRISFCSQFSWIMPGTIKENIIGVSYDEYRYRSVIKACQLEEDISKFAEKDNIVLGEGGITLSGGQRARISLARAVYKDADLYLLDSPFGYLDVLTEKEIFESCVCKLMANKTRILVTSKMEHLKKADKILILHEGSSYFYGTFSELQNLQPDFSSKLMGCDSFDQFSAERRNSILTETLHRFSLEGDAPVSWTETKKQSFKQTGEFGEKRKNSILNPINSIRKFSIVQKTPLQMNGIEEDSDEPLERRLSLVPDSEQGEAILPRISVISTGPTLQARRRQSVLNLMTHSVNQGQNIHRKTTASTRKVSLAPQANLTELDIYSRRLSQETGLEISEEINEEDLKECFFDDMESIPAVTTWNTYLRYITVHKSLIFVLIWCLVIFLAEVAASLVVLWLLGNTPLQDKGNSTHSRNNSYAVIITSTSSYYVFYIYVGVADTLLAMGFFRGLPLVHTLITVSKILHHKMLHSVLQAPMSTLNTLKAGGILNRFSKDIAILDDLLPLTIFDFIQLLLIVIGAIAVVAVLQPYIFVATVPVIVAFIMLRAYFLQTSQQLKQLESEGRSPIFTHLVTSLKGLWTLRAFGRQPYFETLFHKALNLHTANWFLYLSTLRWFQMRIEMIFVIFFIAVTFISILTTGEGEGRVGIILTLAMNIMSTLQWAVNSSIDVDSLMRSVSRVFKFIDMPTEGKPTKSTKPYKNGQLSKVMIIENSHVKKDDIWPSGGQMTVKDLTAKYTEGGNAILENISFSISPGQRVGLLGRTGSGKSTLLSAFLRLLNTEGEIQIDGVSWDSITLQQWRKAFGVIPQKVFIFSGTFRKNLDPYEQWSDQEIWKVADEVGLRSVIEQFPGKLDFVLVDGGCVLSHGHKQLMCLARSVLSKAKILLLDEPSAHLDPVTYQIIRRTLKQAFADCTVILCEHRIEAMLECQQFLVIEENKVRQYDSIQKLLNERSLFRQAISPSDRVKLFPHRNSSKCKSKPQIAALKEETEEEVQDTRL

On to `CC1(C)Cc2c(sc(NC(=O)C3(O)CC3)c2C(N)=O)C(C)(C)O1` [Compound 4, 2-(1-hydroxycyclopropanecarboxamido)-5,5,7,7-tetramethyl-5,7-dihydro-4H-thieno[2,3-c]pyran-3-carboxamide], for which, on CFTR ΔF508 (compound at 3 μM), the ΔIsc was 4.6728 μA/cm^2 and the Current increase worked out at 5.1939 μA/cm^2.

On to `CC1(C)Cc2c(sc(NC(=O)C3(CO)CC3)c2C(N)=O)C(C)(C)O1` [Compound 9, 2-(1-(hydroxymethyl)cyclopropanecarboxamido)-5,5,7,7-tetramethyl-5,7-dihydro-4H-thieno[2,3-c]pyran-3-carboxamide], for which the pEC50 (commonly the EC50 on a negative log10 scale, so that one unit is a factor of ten) on CFTR-G1349D was 6.24; on CFTR ΔF508, 6.63 and 7.19.

Take `CC1(C)Cc2c(sc(NC(=O)c3ccn[nH]3)c2C(N)=O)C(C)(C)O1` [Compound 2, N-(3-carbamoyl-5,5,7,7-tetramethyl-5,7-dihydro-4H-thieno[2,3-c]pyran-2-yl)-1H-pyrazole-5-carboxamide]: the pEC50 was 7.20 on CFTR-G1349D and 7.43 at CFTR ΔF508. Besides, the ΔIsc on CFTR ΔF508 (compound at 50 nM (Table XV)) is recorded as 4.5996 μA/cm^2; on CFTR ΔF508 (compound at 50 nM (Table XVI)), 4.5996 μA/cm^2; at CFTR ΔF508 (compound at 100 nM (Table XVI)) it was 4.9327 μA/cm^2; on CFTR ΔF508 (compound at 200 nM (Table XVI)), 5.0457 μA/cm^2; on CFTR ΔF508 (compound at 3 μM), 10.9207 μA/cm^2. Moreover, the values for the Current increase on CFTR ΔF508 (compound at 50 nM) and at CFTR ΔF508 (compound at 3 μM) were 4.9244 μA/cm^2 and 11.6634 μA/cm^2, respectively. For the same compound, the “activity on the CFTR protein in TECC assay (ΔISC vs DMSO baseline)” value at CFTR ΔF508 (at 3 μM, or 50 nM, or 50/100/200 nM) is “shows an activity”.

For the compound `CC1(C)Cc2c(sc(NC(=O)C(C)(C)CO)c2C(N)=O)C(C)(C)O1` [Compound 10, 2-(3-hydroxy-2,2-dimethylpropanamido)-5,5,7,7-tetramethyl-5,7-dihydro-4H-thieno[2,3-c]pyran-3-carboxamide], at CFTR ΔF508 (compound at 3 μM), the ΔIsc worked out at 3.9356 μA/cm^2 and the Current increase is reported as 4.4567 μA/cm^2.
